pEC50: −log10 of the molar value.
Experiments:
[1] = tested on: cytokinin-dependent tobacco callus Nicotiana tabacum L. cv. Wisconsin 38; test: Growth of cytokinin-dependent tobacco callus; format: cell-based; details: for Activity (%) [10^−5 mol · l^−1 KR = 100%]: at concentration with highest activity, relative to control cytokinin; for Concentration with highest activity: tobacco callus fresh weight after four weeks
Method: Cytokinin effect of newly prepared derivatives was tested using cytokinin-dependent tobacco callus. The cytokinin-dependent tobacco callus Nicotiana tabacum L. cv. Wisconsin 38 was maintained at 25° C. in darkness on modified MS medium, containing per 1 liter: 4 μmol of nicotinic acid, 2.4 μmol of pyridoxine hydrochloride, 1.2 μmol of thiamine, 26.6 μmol of glycine, 1.37 μmol of glutamine, 1.8 μmol of myo-inositol, 30 g of sucrose, 8 g of agar, 5.37 μmol of NAA and 0.5 μmol of the compound tested. Subcultivation was carried out every three weeks. Fourteen days before the bioassay, the callus tissue was transferred to the media without 6-benzylaminopurine. The biological activity was determined from the increase of the fresh callus weight after four weeks of cultivation. Five replicates were prepared for each concentration of the compound tested and the entire test was repeated twice. […] The compounds to be tested were dissolved in dimethylsulfoxide (DMSO) and the solution brought up to 10^−3 M with distilled water. […] The stimulatory activity was calculated from the dose-dependent fresh weight callus growth curves.
From the obtained data, the concentration with the highest activity was selected for each compound tested. Relative activity of the compound at this concentration was calculated (Table 5). […]

[2] = tested on: HOS (human osteogenic sarcoma); test: Calcein AM cytotoxicity assay, HOS; format: cell-based; details: 72 hours incubation
Source text: (§1) Because toxic compounds negatively influence metabolic processes in cells, many standard cytotoxicity assays are based on measurement of metabolisation rate of various artificial substrates. Resulting product is then quantified e.g. by means of spectrometry. The assays can be easily modified for use in 96-well plates. For evaluation of cytotoxic effect of the novel substituted 9-substituted cytokinin derivatives of this invention, a microtiter assay based on quantification of metabolisation of Calcein AM was used. The assay is widely used in drug screening programs and in chemosensitivity testing. In the living cells, Calcein AM is enzymatically hydrolysed and accumulation of resulting calcein is manifested by green fluorescence.
(§2) In the routine screening the following cell lines have been used: CEM (T-lymphoblastoid leukemia), HL-60 (promyelocytic leukemia), K-562 (human erythroleukemia), MCF-7 (breast carcinoma), HOS (human osteogenic sarcoma), and G-361 (human malignant melanoma). Normal human fibroblasts BJ were used as a control for routine screening of the compounds. The cells were kept in Nunc/Corning 80 cm^2 plastic bottles and grown in cell culture medium (DMEM containing 5 g/l glucose, 2 mM glutamine, 100 U/ml penicilline, 100 μg/ml streptomycine, 10% fetal bovine serum and sodium hydrogencarbonate), the compounds were prepared according to the procedure of the present invention.
(§3) The cell suspensions were prepared and diluted according to the particular cell type and the expected target cell density (2.500-30.000 cells per well based on cell growth characteristics) and pippetted (80 μl) into 96-well plates. Inoculates were allowed a pre-incubation period of 24 hours at 37° C. and 5% CO2 for stabilisation. Tested compound was added in total volume of 20 μl of water at time zero. Usually, test compound was evaluated at six 3-fold dilutions. In routine testing, the highest concentration tested was 166.7 μM. All drug concentrations were tested in triplicates. Incubations of cells with the test compounds lasted for 72 hours at 37° C., in 5% CO2 atmosphere and 100% humidity. At the end of incubation period Calcein AM in PBS was added into final concentration of 1 μg/ml. After another 1 hour of incubation fluorescence (FD) was measured with the Labsystem FIA Reader Fluoroscan Ascent (Microsystems). Tumor cell survival (TCS) was estimated using the following equation: […]=(FDdrug exposed well/FDcontrol well)×100%. The GI50 value, the drug concentration causing 50% reduction of esterase activity, was calculated from the obtained dose response curves (FIG. 1).
(§4) Cytoxicity of novel compounds was tested on panel of cell lines of different histogenetic and species origin (Table 3). […] The effective novel derivatives killed tumour cells in concentrations close to 0.1-50 μM.

[3] = tested on: Human lymphocytes; test: Immunosuppressive activity, 3H-thymidine incorporation in concanavalin A activated lymphocytes; format: cell-based; details: 72 hours, [3H]-TdR incorporation, read-out: Human lymphocytes ED50
Source text: One of the most important parameters of specific cellular immunity is the proliferative response of lymphocytes to antigens or polyclonal mitogens. The majority of normal mammalian peripheral lymphocytes comprise resting cells. Antigens or nonspecific polyclonal mitogens have the capacity to activate lymphoid cells and this is accompanied by dramatic changes of intracellular metabolism (mitochondrial activity, protein synthesis, nucleic acids synthesis, formation of blastic cells and cellular proliferation). […] Variety of in vitro assays was developed to measure proliferative response of lymphocytes. The most commonly used is ^3H-thymidine incorporation method.
During cell proliferation, DNA has to be replicated before the cell is divided into two daughter cells. This close association between cell doublings and DNA synthesis is very attractive for assessing cell proliferation. If labelled DNA precursors are added to the cell culture, cells that are about to divide incorporate the labelled nucleotide into their DNA. Traditionally, those assays usually involve the use of radiolabelled nucleosides, particularly tritiated thymidine ([^3H]-TdR). The amount of [^3H]-TdR incorporated into the cellular DNA is quantified by liquid scintillation counting.
Human heparinized peripheral blood was obtained from healthy volunteers by cubital vein punction. The blood was diluted in PBS (1:3) and mononuclear cells were separated by centrifugation in Ficoll-Hypaque density gradient (Pharmacia, 1.077 g/ml) at 2200 rpm for 30 minutes. Following centrifugation, lymphocytes were washed in PBS and resuspended in cell culture medium (RMPI 1640, 2 mM glutamine, 100 U/ml penicillin, 100 μg/ml streptomycin, 10% fetal calf serum and sodium bicarbonate).
The cells were diluted at target density of 1.100.000 cells/ml and were added by pipette (180 μl) into 96-well microtiter plates. Four-fold dilutions of the intended test concentration were added at time zero in 20 μl aliquots to the microtiter plate wells. Usually, test compound was evaluated at six 4-fold dilutions. In routine testing, the highest well concentration was 266.7 μM. All drug concentrations were examined in duplicates. All wells with exception of unstimulated controls were activated with 50 μl of concanavalin A (25 μg/ml). Incubations of cells with test compounds lasted for 72 hours at 37° C., in 5% CO2 atmosphere and 100% humidity. At the end of incubation period, the cells were assayed by using the [^3H]-TdR:
Cell cultures were incubated with 0.5 μCi (20 μl of stock solution 500 μCi/ml) per well for 6 hours at 37° C. and 5% CO2. The automated cell harvester was used to lyse cells in water and adsorb the DNA onto glass-fiber filters in the format of microtiter plate. The DNA incorporated [^3H]-TdR was retained on the filter while unincorporated material passes through. The filters were dried at room temperature overnight, sealed into a sample bag with 10-12 ml of scintillant. The amount of [^3H]-TdR present in each filter (in cpm) was determined by scintillation counting in a Betaplate liquid scintillation counter. The effective dose of immunosuppressant (ED) was calculated using the following equation: ED=(CCPMdrug exposed well/mean CCPMcontrol wells)×100%. The ED50 value, the drug concentration inhibiting proliferation of 50% of lymphocytes, was calculated from the obtained dose response curves.
To evaluate immunosuppressive activity of substituted adenines, their ability to inhibit polyclonal mitogen induced proliferation of normal human lymphocytes was analyzed (Table 4). […] Effective immunosuppressive dose of new derivatives under in vitro conditions was close to 10-40 μM.

[4] = tested on: Normal human fibroblasts BJ; test: Calcein AM cytotoxicity assay, BJ; format: cell-based; details: 72 hours incubation
Source text: as §1, §2, §3, §4

[5] = tested on: G-361 (human malignant melanoma); test: Calcein AM cytotoxicity assay, G-361; format: cell-based; details: 72 hours incubation
Source text: as §1, §2, §3, §4

[6] = tested on: CEM (T-lymphoblastoid leukemia); test: Calcein AM cytotoxicity assay, CEM; format: cell-based; details: 72 hours incubation, Calcein AM
Source text: as §1, §2, §3, §4

[7] = tested on: K-562 (human erythroleukemia); test: Calcein AM cytotoxicity assay, K-562; format: cell-based
Source text: as §1, §2, §3, §4

[8] = tested on: MCF-7 (breast carcinoma); test: Calcein AM cytotoxicity assay, MCF7; format: cell-based; details: 72 hours incubation
Source text: as §1, §2, §3, §4

[9] = tested on: HL-60 (promyelocytic leukemia); test: Calcein AM cytotoxicity assay, HL60; format: cell-based, human
Source text: as §1, §2, §3, §4

SMILES | Activity (%) [10^−5 mol · l^−1 KR = 100%] [1] [%] | Concentration with highest activity [1] | GI50 [2] [µM] | pEC50 [3] | GI50 [4] [µM] | GI50 [5] [µM] | GI50 [6] [µM] | GI50 ([7]; 72 hours incubation) [µM] | GI50 [8] [µM] | GI50 ([9]; 72 hours incubation) [µM] | GI50 ([2]; Homo sapiens) [µM] | GI50 ([4]; Homo sapiens, Fibroblast) [µM] | GI50 ([5]; Homo sapiens) [µM] | GI50 ([7]; Homo sapiens, K562, 72 hours incubation) [µM] | GI50 ([8]; Homo sapiens) [µM] | GI50 ([9]; Homo sapiens, HL-60, 72 hours incubation) [µM]
O=P(O)(O)OC[C@H]1O[C@@H](n2cnc3c(NCc4cccc(F)c4)ncnc32)[C@H](O)[C@@H]1O [Compound 2, 6-(3-fluorobenzylamino)purine riboside-5′-monophosphate] | 103 ± 6 | 10^−5 mol · l^−1 | > 167 | 4.94 | > 167 | 15.7 | 4 | 7 | 16.6 | 0.92 |  |  |  |  |  | 
COc1ccccc1CNc1ncnc2c1ncn2[C@@H]1O[C@H](COP(=O)(O)O)[C@@H](O)[C@H]1O [Compound 15, 6-(2-methoxybenzylamino)purine riboside-5-monophosphate] | 108 ± 1 | 10^−5 mol · l^−1 | 21.2 |  | > 167 | > 167 | 3.2 | 11.2 | > 167 | 2.3 |  |  |  |  |  | 
COc1cccc(CNc2ncnc3c2ncn3[C@@H]2O[C@H](COP(=O)(O)O)[C@@H](O)[C@H]2O)c1 [Compound 16, 6-(3-methoxybenzylamino)purine riboside-5′-monophosphate] | 102 ± 1 | 10^−6 mol · l^−1 | > 167 |  | > 167 | > 167 | 7.6 | > 167 | > 167 | 4.9 |  |  |  |  |  | 
O=P(O)(O)OC[C@H]1O[C@@H](n2cnc3c(NCc4cccc(O)c4)ncnc32)[C@H](O)[C@@H]1O [Compound 22, 6-(3-hydroxybenzylamino)purine riboside-5′-monophosphate] |  |  | > 167 | 4.89 | > 167 | > 167 | 51.9 | > 167 | > 167 | 23.7 |  |  |  |  |  | 
O=P(O)(O)OC[C@H]1O[C@@H](n2cnc3c(NCc4cc(Cl)ccc4O)ncnc32)[C@H](O)[C@@H]1O [Compound 47, 6-(2-hydroxy-5-chlorobenzylamino)purine riboside-5′-monophosphate] |  |  | 10.6 |  | 63.4 | 12.5 | 0.6 | 15.7 | 18 | 0.47 |  |  |  |  |  | 
O=P(O)(O)OC[C@H]1O[C@@H](n2cnc3c(NCc4cc(F)ccc4O)ncnc32)[C@H](O)[C@@H]1O [Compound 48, 6-(2-hydroxy-5-fluorobenzylamino)purine riboside-5′-monophosphate] |  |  | 9.1 |  | 58.7 | 10.7 | 0.5 | 13.4 | 16 | 0.53 |  |  |  |  |  | 
Nc1ncnc2c1ncn2[C@@H]1O[C@H](CO)[C@@H](O)[C@H]1O [adenosine] |  |  |  |  |  |  | > 167 |  |  |  | > 167 | > 167 | > 167 | > 167 | > 167 | > 167
C/C(=C\CNc1ncnc2c1ncn2[C@@H]1O[C@H](CO)[C@@H](O)[C@H]1O)CO [zeatin riboside, reference compound] |  |  | > 167 |  | > 167 | > 167 | > 167 | > 167 | > 167 | > 167 |  |  |  |  |  | 
